Results taken from ChEMBL document CHEMBL1127700, “Iron(III)-chelating resins. IX. Antibacterial activity of a water-insoluble iron(III)-chelating resin” (1994).

Key:
[1] = tested on: Escherichia coli; test: Tested in vitro for percent inhibition of the growth of Escherichia coli at concentration of 20 uM; format: functional
[2] = tested on: Listeria innocua; test: Tested in vitro for percent inhibition of the growth of Listeria inocua at concentration of 20 uM; format: functional

Compound | Growth response [1] | Growth response [2]
CCC(=O)NCCn1ccc(=O)c(O)c1C | 0% | 14%
C=CC(=O)NCCn1ccc(=O)c(O)c1C | 0% | 13%
